Reference: ChEMBL document CHEMBL1201862, “PubChem BioAssay data set” (2004)
Values joined by “and” are separate entries in the source; they are usually repeats but may differ in a detail not shown here. Equal entries are not always repeated.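 Assay format: 96-well plates, 48-hour exposure. Abbreviation: GI50, concentration required for 50% inhibition of growth.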 Active and inactive are the calls of the source. Cut-off read from the data, not from the text of the source: active = GI50 up to about 1.1 µM and inactive = higher.

How the values were obtained:
Assay in all cases: NCI-60 cell line screen, 48 h
HOP-18 = system: HOP-18
UO-31 = system: UO-31
HCT-116 = system: HCT-116
A549 = system: A549
786-0 = system: 786-0
OVCAR-8 = system: OVCAR-8
RXF 393 = system: RXF 393
OVCAR-4 = system: OVCAR-4
XF498 = system: XF498
OVCAR-3 = system: OVCAR-3
SK-MEL-28 = system: SK-MEL-28
DMS-273 = system: DMS-273
HL-60 = system: HL-60
MOLT-4 = system: MOLT-4
SF-295 = system: SF-295
M14 = system: M14
CAKI-1 = system: CAKI-1
SK-MEL-5 = system: SK-MEL-5
NCI-H23 = system: NCI-H23
LOX IMVI = system: LOX IMVI
SK-OV-3 = system: SK-OV-3
U-251 = system: U-251
SK-MEL-2 = system: SK-MEL-2
OVCAR-5 = system: OVCAR-5
DLD-1 = system: DLD-1
TK-10 = system: TK-10
SF-539 = system: SF-539
M19-MEL = system: M19-MEL
HOP-62 = system: HOP-62
NCI-H226 = system: NCI-H226
UACC-62 = system: UACC-62
NCI-H522 = system: NCI-H522
SN12C = system: SN12C
RPMI-8226 = system: RPMI-8226
KM12 = system: KM12
KM-20L2 = system: KM-20L2
SF-268 = system: SF-268
ACHN = system: ACHN
CCRF-CEM = system: CCRF-CEM
HT-29 = system: HT-29
DMS-114 = system: DMS-114
SNB-19 = system: SNB-19
SR = system: SR
UACC-257 = system: UACC-257
COLO 205 = system: COLO 205
EKVX = system: EKVX
SNB-75 = system: SNB-75
NCI-H460 = system: NCI-H460
HOP-92 = system: HOP-92
HCT-15 = system: HCT-15
LXFL 529 = system: LXFL 529
SW-620 = system: SW-620
SNB-78 = system: SNB-78
IGROV-1 = system: IGROV-1
K562 = system: K562
MDA-MB-231 = system: MDA-MB-231
MDA-N = system: MDA-N
PC-3 = system: PC-3
Hs-578T = system: Hs-578T
DU-145 = system: DU-145
NCI/ADR-RES = system: NCI/ADR-RES
MCF7 = system: MCF7
BT-549 = system: BT-549
T47D = system: T47D
MDA-MB-435 = system: MDA-MB-435
RXF 631 = system: RXF 631
Malme-3M = system: Malme-3M
HCC 2998 = system: HCC 2998

Measured: GI50

N#C/C(=C/Sc1ccccc1)C(=O)O
inactive: HOP-18 > 100 µM | UO-31 12.6 µM | HCT-116 17.4 µM | A549 17.4 µM | 786-0 22.6 µM | OVCAR-8 17 µM | RXF 393 14.3 µM | OVCAR-4 40.7 µM | XF498 41.8 µM | OVCAR-3 27.1 µM | SK-MEL-28 24.5 µM | DMS-273 22.2 µM | HL-60 34.4 µM | MOLT-4 14.9 µM | SF-295 37.3 µM | M14 22 µM | CAKI-1 27.3 µM | SK-MEL-5 29.6 µM | NCI-H23 45.1 µM | LOX IMVI 10.6 µM | SK-OV-3 59.4 µM | U-251 13.5 µM | SK-MEL-2 24.7 µM | OVCAR-5 29.6 µM | DLD-1 36 µM | TK-10 38.7 µM | SF-539 18.2 µM | M19-MEL 23.3 µM | HOP-62 43.9 µM | NCI-H226 23.3 µM | UACC-62 26 µM | NCI-H522 10.9 µM | SN12C 20 µM | RPMI-8226 24.5 µM | KM12 19.1 µM | KM-20L2 30.1 µM | SF-268 8.59 µM | ACHN 27.6 µM | CCRF-CEM 9.25 µM | HT-29 24.7 µM | DMS-114 15.1 µM | SNB-19 56.2 µM | SR > 100 µM | UACC-257 34.4 µM | COLO 205 20.9 µM | EKVX 40.7 µM | SNB-75 19.2 µM | NCI-H460 25.7 µM | HOP-92 57.7 µM | LXFL 529 21.2 µM | SW-620 41.2 µM | SNB-78 18 µM | IGROV-1 17.9 µM | K562 43.1 µM
21.9 µM: HCT-15

CN(C)CCNC(=O)c1cccc2cc([N+](=O)[O-])ccc12
active: HOP-18 0.697 µM | RXF 393 0.0649 µM | XF498 0.252 µM | DMS-273 0.123 µM | CAKI-1 0.519 µM | DLD-1 0.217 µM | M19-MEL 0.279 µM | NCI-H522 0.685 µM | RPMI-8226 183 nM and 262 nM | PC-3 0.76 µM | KM-20L2 0.111 µM | MCF7 0.608 µM | DMS-114 0.217 µM | UACC-257 0.243 µM | HOP-92 0.249 µM | LXFL 529 0.271 µM | SNB-78 0.22 µM
inactive: MDA-MB-231 1.34 µM | MDA-N 1.98 µM | Hs-578T 1.46 µM | DU-145 2.86 µM | NCI/ADR-RES 1.39 µM | BT-549 3.56 µM | T47D 2.79 µM | MDA-MB-435 2.23 µM

CO/C=C/c1cc2c(cc1C(OC)OC)OCO2
inactive: UO-31 26.5 µM | HCT-116 27.5 µM | A549 > 100 µM | 786-0 42.6 µM | OVCAR-8 > 100 µM | RXF 393 40.9 µM | OVCAR-4 > 100 µM | XF498 33.4 µM | OVCAR-3 29.9 µM | SK-MEL-28 > 100 µM | DMS-273 30.3 µM | HL-60 3.56 µM | MOLT-4 33.7 µM | M14 31.1 µM | CAKI-1 29.5 µM | SK-MEL-5 17.4 µM | NCI-H23 54 µM | SK-OV-3 26.1 µM | RXF 631 43.7 µM | U-251 53.3 µM | SK-MEL-2 82.2 µM | OVCAR-5 52.8 µM | DLD-1 36.1 µM | TK-10 55 µM | SF-539 34.7 µM | M19-MEL 76.4 µM | HOP-62 26.7 µM | NCI-H226 57 µM | UACC-62 22.6 µM | NCI-H522 > 100 µM | SN12C 79.3 µM | KM12 52.6 µM | KM-20L2 35.2 µM | SF-268 52.1 µM | ACHN 83.4 µM | CCRF-CEM 39.7 µM | HT-29 39.4 µM | DMS-114 32.9 µM | SNB-19 36.7 µM | SR 44.6 µM | UACC-257 > 100 µM | EKVX 69.7 µM | SNB-75 16.4 µM | NCI-H460 36 µM | HOP-92 40.2 µM | SW-620 50 µM | Malme-3M 53.6 µM | SNB-78 > 100 µM | IGROV-1 60.1 µM | HCC 2998 > 100 µM | K562 29.9 µM
